This is an account of results in publication PMC9500544, “Anti-Trichomonas gallinae activity of essential oils and main compounds from Lamiaceae and Asteraceae plants” (Frontiers in Veterinary Science, 2022).

Converted amounts (≈) assume the structure as drawn. Where two headings read alike, the source gives them in different places.

Data set [1] relates to Trichomonas gallinae trophozoites. Nature of the data set: Anti-trichomonal (AT) activity in vitro, MTT reduction assay on trophozoites. It counts as cell-based. Conditions: for IC50: Trichomonas gallinae, read-out: T. gallinae (IC50), concentration needed to produce 50% trophozoite mortality; for AT activity against T. gallinae (in words): no concentration stated. The method, then:
The AT activity assay was performed using round bottom microwell plates in quadruplicate. Each well had 150 μl of T. gallinae trophozoites in Trypticase-Yeast Extract-Maltose medium (TYM) with 10% fetal calf serum (Sigma, Madrid, Spain) at 500.000 trophozoites/ml ([29]). EOs and pure compounds were solved in DMSO (Sigma, Madrid, Spain) (<1% final concentration). […] Trophozoite viability was analyzed using the modified MTT colorimetric assay method as previously described in literature ([29]). Briefly, after incubating the plate for 24 h at 37°C with the EOs and compounds to be tested, the plates were centrifuged at 750 x g, the medium was eliminated and 100 μl of a solution of MTT (Sigma, Madrid, Spain) (1.25 μg/ml) and PMS (Sigma, Madrid, Spain) (0.1 μg/ml) in PBS (Sigma, Madrid, Spain) was added to each well. The plate was incubated for 45 min in dark conditions to allow the reduction of MTT to formazan salts. Prior to reading, 100 μl of DMSO was added to each well to dissolve the formazan crystals. The plate was read in a spectrophotometer using a wavelength of 570 nm.
The percentage of AT activity was calculated as growth inhibition using the following formula:
% AT = 100-[(Ap-Ab)÷(Ac-Ab)]×100
Where Ap is the absorbance of the tested product, Ab the absorbance of the blank and Ac the absorbance of the control wells (culture without treatment).
Pure compounds were assayed using the same method described above, although the concentrations tested were 100, 75, 50, 25, 10, and 1 μg/ml. Metronidazole (Acros Organics, Madrid Spain) was used as a reference drug for antitrichomonal activity.
IC50 (μg/ml) reflects the dose needed to produce 50% mortality of T. gallinae trophozoites.
(§1) IC50 anti-trichomonal activity and CC50 cytotoxic activity were determined from the dose-response experiment, employing a linear regression analysis (% cell viability on log dose).

A further data set can be described thus: in vitro. It counts as cell-based. The protocol:
(§2) African green monkey kidney cells (Vero cells) were grown in Dulbecco's modified Eagle's minimal essential medium (DMEM, Avantor, Llinars del Vallès, Barcelona) supplemented with 10% fetal calf serum (Sigma, Madrid, Spain) and 1% penicillin/streptomycin (Fisher Scientific, Madrid, Spain) at 37°C under a humidified atmosphere of 5% CO2/95% air.
(§3) Cells seeded in 96-well flat-bottom microplates with 100 μL medium per well (initial densities 10^4 cells per well) were exposed for 48 h to serial dilutions of the test compounds in DMSO (<1% final concentration). Cell viability was analyzed by the MTT colorimetric assay method, and the purple-colored formazan precipitate was dissolved with 100 μL of DMSO ([30]).
as §1

For a further data set, the system named is Vero cells. Put plainly: in vitro. It counts as cell-based. Conditions: pure compounds; for Vero cells (CC50), concentration needed to produce 50% Vero cell mortality: 48 h exposure, interval in parentheses; for Cytotoxic activity on Vero cells (in words): up to 100 μg/ml, 48 h. The protocol:
as §2, §3, §1

For data set [2] the following is noted: cited from earlier work.
[3] abbreviates: pure compounds, 24 h incubation, interval in parentheses.
Setting [4] is: SI = CC50 (Vero cells)/IC50 (T. gallinae).
Setting [5] is: pure compounds, 48 h exposure, interval in parentheses, read-out: Vero cells (CC50), concentration needed to produce 50% Vero cell mortality.

With `CC12CCC(CC1)C(C)(C)O2` [1,8 cineole], the IC50 in data set [1] (setting [3]) is more than 100 µg/mL. This molecule also yielded a CC50 at 48 h in “in vitro” (African green monkey) of more than 100 µg/mL.

As to `CC1=CCC(O)(C(C)C)CC1` (stereo not shown) [4-terpinenol], the “SI, Selectivity index” value in data set [1] (setting [4]) is on record as more than 2.4. The IC50 in data set [1] (setting [3]) was determined as 41.5 µg/mL (≈ 269 µM). For the same molecule, the CC50 in “in vitro” (setting [5]) was more than 100 µg/mL.

`CC1(C)C2CCC1(C)C(O)C2` (stereo not shown) [Borneol]: the IC50 in data set [1] (setting [3]) was more than 100 µg/mL. In the data set “in vitro” (African green monkey), this molecule gave a CC50 at 48 h of more than 100 µg/mL.

Consider `C=C1C2CCC(C2)C1(C)C` (stereo not shown) [Camphene], for which the IC50 in data set [1] (setting [3]) worked out at 24 µg/mL (≈ 176 µM). Besides, in the data set “in vitro” (setting [5]), the CC50 is 74.8 µg/mL (≈ 549 µM).

As to `CC12CCC(CC1=O)C2(C)C` (stereo not shown) [Camphor], the IC50 in data set [1] (setting [3]) was more than 100 µg/mL. This molecule also registered a CC50 at 48 h in the data set “in vitro” (African green monkey) of more than 100 µg/mL.

Consider `Cc1ccc(C(C)C)cc1O` [Carvacrol], for which the IC50 in data set [1] (setting [3]) was more than 100 µg/mL. Further, the CC50 in the data set “in vitro” (setting [5]) is more than 100 µg/mL.

Turning to `C=C1CC[C@H]2O[C@]2(C)CC[C@@H]2[C@@H]1CC2(C)C` [Caryophyllene oxide], in data set [1] (pure compounds), the “AT activity against T. gallinae (in words)” value (from here on “AT activity”) is listed as “slight activity”. Further, the “T. gallinae (IC50), concentration needed to produce 50% trophozoite mortality” value in data set [1] (setting [3]) is recorded as “≈100 μg/ml”. Moreover, the “Vero cells (CC50), concentration needed to produce 50% Vero cell mortality” value (from here on “Vero cells … to produce 50% Vero cell mortality”) in the data set with Vero cells was more than 100 µg/mL.

`CC1(C)C(=O)[C@@]2(C)CCC1C2` [D-fenchone]: in data set [1] (setting [3]), the “T. gallinae (IC50), concentration needed to produce 50% trophozoite mortality” value is on record as 61.9 (54.3–70.6) μg/ml. For the same molecule, the “Vero cells … to produce 50% Vero cell mortality” value with Vero cells was more than 100 µg/mL.

Take `C=CC(C)(O)CCC=C(C)C` (stereo not shown) [Linalool]: the IC50 in data set [1] (setting [3]) was more than 100 µg/mL. Moreover, the “AT activity” value in data set [1] (pure compounds) was “not an active AT compound”. Besides, in the data set “in vitro” (setting [5]), the CC50 was more than 100 µg/mL.

Regarding `C=CC(C)(CCC=C(C)C)OC(C)=O` (stereo not shown) [Linalyl acetate], the “SI, Selectivity index” value in data set [1] is more than 3.1. The IC50 in data set [1] (24 h) was found to be 32.2 µg/mL. Moreover, in the data set “in vitro”, the CC50 is more than 100 µg/mL.

With `Cc1ncc([N+](=O)[O-])n1CCO` [Metronidazole, reference compound], the IC50 in data set [1] (setting [3]) is 1 µg/mL (≈ 5.84 µM). Moreover, the CC50 at 48 h in “in vitro” (African green monkey) is more than 100 µg/mL.

With `Cc1ccc(C(C)C)c(O)c1` [Thymol], the IC50 in data set [1] (setting [3]) worked out at 38.4 µg/mL (≈ 256 µM). The molecule further returned a CC50 at 48 h in the data set “in vitro” (African green monkey) of more than 100 µg/mL.

As for `Cc1ccc(C(C)C)cc1` [p-cymene], the “SI, Selectivity index” value in data set [1] (setting [4]) was more than 1.7. Moreover, the IC50 in data set [1] (setting [3]) was determined as 59.7 µg/mL (≈ 445 µM). The CC50 in “in vitro” (setting [5]) is more than 100 µg/mL.

Consider `CC1=CCC2CC1C2(C)C` (stereo not drawn) [α-pinene], for which, in data set [1] (setting [3]), the IC50 turned out to be 44.2 µg/mL (≈ 324 µM). In addition, the CC50 at 48 h in “in vitro” (African green monkey) amounted to 88.9 µg/mL (≈ 653 µM). Moreover, the “Cytotoxic activity on Vero cells (in words)” value (from here on “Cytotoxic activity”) in the data set on Vero cells was “slightly toxic”.

Turning to `CC1=CC[C@@H](C(C)(C)O)CC1` [α-terpineol], the IC50 in data set [1] (setting [3]) was more than 100 µg/mL. In addition, the CC50 in “in vitro” (setting [5]) is more than 100 µg/mL.

Take `C=C1CC/C=C(\C)CC[C@@H]2[C@@H]1CC2(C)C` [β-caryophyllene]: the IC50 in data set [1] (setting [3]) was determined as 86.1 µg/mL (≈ 421 µM). Also, in data set [1] (pure compounds), the “AT activity” value is “slight activity”. For the same molecule, the CC50 in the data set “in vitro” (setting [5]) is 60.8 µg/mL (≈ 298 µM). The “Cytotoxic activity” value with Vero cells is given as “slightly toxic”.

Take `C=C1CCC2CC1C2(C)C` (stereo not drawn) [β-pinene]: the IC50 in data set [1] (setting [3]) is 29.6 µg/mL (≈ 217 µM). In “in vitro” (setting [5]), the CC50 worked out at 88.2 µg/mL (≈ 647 µM).

As for `CC1=CCC(C(C)C)=CC1` [γ-terpinene], the “SI, Selectivity index” value in data set [1] (setting [4]) is more than 2.3. Further, the IC50 in data set [1] (setting [3]) turned out to be 43.8 µg/mL (≈ 321 µM). For the same molecule, in “in vitro” (setting [5]), the CC50 at 48 h was more than 100 µg/mL.

Turning to α and β thujone, the “T. gallinae (IC50), concentration needed to produce 50% trophozoite mortality” value in data set [1] (setting [3]) is recorded as 17.3 (11.3–26.3) μg/ml. Besides, in the data set on Vero cells, the “Cytotoxic activity” value is reported as “did not show cytotoxic effect” and the “Vero cells … to produce 50% Vero cell mortality” value is more than 100 µg/mL. Also, the “Neurotoxicity (in words)” value in data set [2] is “potent neurotoxic substances”.
